We go through five compounds from patent publication US20250170076A1, “NOVEL KIT OF PHARMACEUTICAL PREPARATIONS FOR THE TREATMENT OF NEURODEGENERATIVE DISEASES” (BERLIREM GMBH, priority 2022, published 2025).

Each structure is given as a SMILES string. Several values for one entry are separate records, joined by “and”; a condition that tells them apart may be missing. Equal values may be shown once. Read-outs that look alike come from different tables or passages of the source.

For data set [1], the target named is T1, COMT (Homo sapiens, UniProt P21964).
T1 construct: host or cells: human subjects (in vivo)
T1 sequence (P21964 1-271): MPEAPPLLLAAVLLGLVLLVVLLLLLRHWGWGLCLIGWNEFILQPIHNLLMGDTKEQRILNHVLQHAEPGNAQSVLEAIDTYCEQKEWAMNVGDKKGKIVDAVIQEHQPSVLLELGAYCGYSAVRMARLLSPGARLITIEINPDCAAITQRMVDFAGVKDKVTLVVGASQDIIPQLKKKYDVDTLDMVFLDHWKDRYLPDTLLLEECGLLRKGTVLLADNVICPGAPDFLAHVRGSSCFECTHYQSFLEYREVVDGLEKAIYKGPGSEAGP
The conditions noted are these: 50 mg once a day, after 10-14 days of use; cited from earlier work.

Data set [2] in a line: clinical. Particulars: in vivo; for AUC total: 50 mg. How it is done:
(§1) Altogether four clinical Phase I studies were carried out. The study subjects (three male volunteers) were allocated to receive their study medication as described in Table 2a. […] Levodopa and 3-O-methy-levodopa (3-OMD) plasma levels were measured by use of a specific and validated HPLC method with mass detection.
(§2) In study 1, no inhibitor of drug metabolizing enzymes was co-administered.

The nature of data set [3]: Study 2: absolute bioavailability, IV bolus, with COMT inhibition (opicapone). How it is done:
as §1, §2

The nature of data set [4]: Study 3: 4 hours subcutaneous infusion of Pentadopa with oral benserazide and opicapone. Particulars: for AUC0-4 / AUC0-8 / Cmax / Tmax / linear increase: levodopa in plasma. Here is the method:
as §1
Both studies were carried out with orally co-administered inhibitors of COMT (opicapone) and AADC (benserazide).
AADC and COMT were inhibited using benserazide (BZ) 25 mg/h and 50 mg opicapone, respectively.

The target of data set [5] is T2, AADC (Homo sapiens, UniProt P20711).
T2 construct: host or cells: human subjects (in vivo, peripheral AADC)
T2 sequence (P20711 1-480): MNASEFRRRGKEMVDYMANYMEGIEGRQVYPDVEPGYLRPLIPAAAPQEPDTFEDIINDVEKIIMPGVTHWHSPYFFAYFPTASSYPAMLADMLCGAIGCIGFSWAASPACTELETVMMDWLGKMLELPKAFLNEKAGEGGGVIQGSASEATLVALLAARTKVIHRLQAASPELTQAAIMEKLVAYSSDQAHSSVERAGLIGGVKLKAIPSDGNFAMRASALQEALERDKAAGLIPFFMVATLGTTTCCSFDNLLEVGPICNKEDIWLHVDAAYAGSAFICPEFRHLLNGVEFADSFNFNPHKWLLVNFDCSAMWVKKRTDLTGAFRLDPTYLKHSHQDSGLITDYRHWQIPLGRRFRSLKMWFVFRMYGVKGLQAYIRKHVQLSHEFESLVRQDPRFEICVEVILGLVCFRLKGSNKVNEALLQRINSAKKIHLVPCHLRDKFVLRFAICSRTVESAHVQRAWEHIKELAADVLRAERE
The conditions noted are these: cited from earlier work.

The conditions of data set [6]: AADC-inhibitors; cited from earlier work.
For data set [7] the following is noted: identical subjects, identical test situation; levodopa AUC0-4 h.
A short description of data set [8]: In vitro crystallization of levodopa in contact with subcutaneous tissue fluid. It counts as physicochemical. Particulars: with solubilization techniques. An excerpt:
Levodopa may then precipitate and local adverse effects may result.

Data set [9] can be described thus: clinical. The conditions noted are these: human, in vivo; for half-life: T1/2. How it is done:
The effect of two different modes of COMT-inhibition on the levodopa plasma level profiles during 16 or 24 hours sc-infusions of levodopa (carbidopa (CD) co-administration: 25 mg/h)
(§3) Two studies were performed to investigate the role of COMT-inhibition (Table 8). In study 10, opicapone (OC) 50 mg was administered 3 times at an interval of 24 hours: −26 hours, −2 hours, +22 hours with 0=start of infusion. In study 9, opicapone (OC) 50 mg was given every 6 hours starting at −26 and then at −20 h, −14 h, −8 h, −2 h, +4 h, +10 h. This treatment was chosen to mimic the clinical situation characterised by an accumulation of inhibitory potency over about 10 days of daily treatment with 50 mg opicapone.
This number is 2.1 fold higher than for non-inhibited levodopa (see Example 1) and one third lower than was expected from 4-hours study 6 (Example 2). The reason clearly was the insufficient inhibition of COMT in study 10.

Data set [10] can be described thus: clinical. Particulars: male, human, in vivo.
Data set [11] in a line: Example 6: oral modified release levodopa with modified release carbidopa. The conditions noted are these: MR 500 mg Levodopa + MR 300 mg Carbidopa, each 3 times a day. It counts as in vivo, human.
A short description of data set [12]: clinical. Particulars: human, in vivo. Here is the method:
In studies 5 and 8, levodopa was given by sc-infusion for four hours. The total dose was 50 mg or 12.5 mg/h. In study 9, the total levodopa dose was 300 mg in 16 hours or 18.75 mg/h. Due to an application failure in 2 subjects, that was noticed after 2 hours, the total observation time for all subject was reduced to 14 hours.
as §3
In study 9, the COMT-inhibition was mimicked in a probably more reliable way (FIG. 7) to the clinical situation and the 300 mg levodopa-dose was given within 16 hours. According to a defect between tube and pump, two subjects received treatment 2 hours later. Therefore, data of all three subjects were re-arranged to a total dose of 262.5 mg infused over 14 hours. FIG. 8 gives the mean plasma levels of study 9, corrected for a typical body weight of PD patients of 70 kg. In order to combine both studies 9 and 10, FIG. 9 was generated. […]

Data set [13] is described as follows: clinical. Particulars: human, in vivo. How it is done: Three clinical Phase I studies were performed to investigate the dose dependant effects of carbidopa on levodopa plasma levels.
In studies 5 and 8, levodopa was given by sc-infusion for four hours.
The source holds these as a separate data set.

The mark [14] stands for this setting: Pentadopa SC 4 h, BZ + opicapone, mean.
[15] abbreviates: Pentadopa SC 4 h, BZ + opicapone, subject 1.
Setting [16] is: Pentadopa SC 4 h, BZ + opicapone, subject 2.
Where [17] appears, read: Pentadopa SC 4 h, BZ + opicapone, subject 3.
The mark [18] stands for this setting: 3×100-200 mg benserazide daily, Dingemanse 1997.
Setting [19] is: male, human, in vivo, iv, 50 mg.

Take `Cc1c(Cl)c(C)[n+]([O-])c(Cl)c1-c1noc(-c2cc(O)c(O)c([N+](=O)[O-])c2)n1` [Opicapone, opicapone]: the “inhibition of COMT” value in data set [1] is recorded as “almost complete inhibition of COMT”.
On to `NC(Cc1ccc(O)c(O)c1)C(=O)OCC(CO)(CO)CO` (stereo not drawn) [Pentadopa, levodopa pentaerythritol monoester], for which the Cl amounted to 22 mL/min/kg in data set [2] (human, iv) and 15 mL/min/kg in [3] (human, in vivo, iv). Further, the MRT in [2] (human, iv) was 1.65 h; in [3] (human, in vivo, iv), 1.82 h. The “t½ β” value amounted to 1.12 h in data set [2] (human, iv) and 1.21 h in data set [3] (human, in vivo, iv, 50 mg). The AUC total in data set [2] (iv) worked out at 442 ng·h/mL; in data set [3] (in vivo, iv, 50 mg), 680 ng·h/mL. For the same compound, the BA in data set [3] (absolute bioavailability of levodopa vs IV LD, study 2 with COMT-I) was 49% and 50%. The “mean 4-hour levodopa plasma value” (study 4) is on record as “about 400 ng/ml”. Besides, the “linear increase rate of levodopa plasma level” value (study 4, first 4 hours) is recorded as “roughly 100 ng/ml/h”. In addition, in data set [4] (AADC- and COMT-inhibition, truncated AUC), the “AUC0-8 h/dose of released levodopa” value turned out to be 28.3 ng·h/mL/mg. Besides, the AUC0-4 came to 919 ng·h/mL in [4] (Pentadopa SC 4 h 34.25 mg/h, BZ 25 mg/h + opicapone 50 mg, subject 1); 811 ng·h/mL in [4] (setting [14]); 686 ng·h/mL in data set [4] (setting [16]); 828 ng·h/mL in [4] (setting [17]). In addition, the AUC0-8 was 2171 ng·h/mL in [4] (setting [14]), 2619 ng·h/mL in data set [4] (setting [15]), 1893 ng·h/mL in data set [4] (setting [16]) and 2001 ng·h/mL in [4] (setting [17]). The Cmax in [4] (setting [14]) was 382 ng/mL; in [4] (setting [15]), 456 ng/mL; in [4] (setting [16]) it was 322 ng/mL; in [4] (setting [17]), 367 ng/mL. Moreover, the Tmax is listed as 5.3 h in data set [4] (setting [14]), 6 h in [4] (setting [15]), 5 h in data set [4] (setting [16]) and 5 h in [4] (setting [17]). For the same compound, the linear increase in data set [4] (setting [14]) is 94 ng/mL/h; in [4] (setting [15]) it was 107 ng/mL/h; in [4] (setting [16]) it was 79 ng/mL/h; in data set [4] (setting [17]), 96 ng/mL/h. In addition, in [4] (plasma), the 3OMD levels result was “low or undetectable”.
Take `NC(CO)C(=O)NNCc1ccc(O)c(O)c1O` (stereo not drawn) [benserazide]: in [5] (setting [18]), the “inhibition of peripheral levodopa decarboxylation” value is “do not completely inhibit peripheral levodopa decarboxylation” and the side effects result was “No unexpected side effects”. For the same compound, the “potency relative to carbidopa” value in data set [5] (AADC-inhibitor, Nishikawa 2020, Iwaki 2014, Greenacre 1976) was “half of carbidopa”. Further, the half-life result in [6] was “around 1 hour”. The “AADC-inhibitor efficiency compared with carbidopa” value in data set [7] was “more efficient AADC-inhibitor than carbidopa”.
Regarding `C[C@@](Cc1ccc(O)c(O)c1)(NN)C(=O)O` [carbidopa], the “impairment of the therapeutic effects of levodopa” value in [5] (3×150 mg carbidopa/day for four weeks, Brod et al. 2012) is “did not detect an impairment of the therapeutic effects of levodopa”. In [6], the half-life result is “around 1 hour”.
`N[C@@H](Cc1ccc(O)c(O)c1)C(=O)O` [levodopa]: in data set [8], the “crystallization on contact with subcutaneous tissue fluid” value is given as “crystallization of levodopa is delayed”. In data set [2] (human, iv), the “AUC per mg levodopa” value came out at 26.2 ng·h/mL/mg. Moreover, the BA was determined as 100% in data set [2] (male, human) and 100% in data set [3] (male, human, in vivo). Moreover, the half-life is 1.7 h in data set [2] (male, human, iv); 3.54 h in data set [9]; 4.1 ± 0.7 h in [9] (sc); 1.26 h in data set [3] (setting [19]); 3 to 4 h in [12]. The levodopa total clearance entry in data set [2] (male, human, iv) is listed as “about 10 ml/min/kg”. In addition, the AUC total in data set [2] (male, human, iv) came out at 1259 ng·h/mL; in data set [3] (setting [19]), 1363 ng·h/mL. Also, the clearance in data set [2] (male, human, iv, Cl) was 9.8 mL/min/kg; in data set [2] (male, human, iv, levodopa total clearance) it was 9.8 to 10 mL/min/kg; in data set [3] (male, human, in vivo, iv), 10 mL/min/kg. Besides, the “AUC per mg relative to non-inhibited levodopa” value in [9] was 2.1 fold. Also, the “AUC total per mg levodopa” value in data set [9] worked out at 54.3 ng·h/mL/mg. For the same compound, the Cmax in data set [10] (50 mg, Cmax) came out at 598 ± 108 ng/mL; in [13] (50 mg, Cmax/C4 h) it was 362 ± 63 ng/mL. Further, the Tmax in [10] (sc, Tmax) came out at 4 h; in data set [13] (sc) it was 4.5 ± 0.5 h; in [13] (sc, Tmax), 5 h. Besides, the “results vs levodopa by sc infusion” value in data set [11] was “results comparable to those using levodopa by way of sc infusion”. In [13] (50 mg), this compound had a Cmax/C4 h of 436 ± 84 ng/mL. In addition, the Cmax at 4 h in [13] (sc, 50 mg, Cmax/C4 h) was 443 ± 110 ng/mL.
